In paper PMC7305224, “Mutually stabilizing interactions between proto-peptides and RNA” (Nature Communications, 2020):
Entries after “also recorded” stand apart in the source; their conditions may differ. Non-standard residues stand in square brackets, D forms with d. Residues, ends and D or L forms follow the SMILES beside them. Dab = NCC[C@H](N)C(=O)O; Lac = C[C@H](O)C(=O)O

Experiments:
RNA duplex 1 = assay: CD analysis of RNA duplex with peptides/depsipeptides; type: binding; conditions: for changes in CD spectra of the RNA duplex upon addition: RNA duplex 5 µM, peptide/depsipeptide 0–10 µM, MES-TEA buffer (60 mM)
Excerpt: The gel was cropped at the edges for clarity. […] […] Red and blue colors of the filled circles correspond to curves of the same color in panel (c). […] […] Scans were from 320 nm to 220 nm with a bandwidth of 5 nm, data pitch of 0.2 nm, and scan rate of 50 nm/min with three accumulations. […] Data were collected in independent triplicates and the data were averaged. Finally, data were smoothed and plotted using Matlab.

[1] = cited from earlier work
Excerpt: Several lines of evidence support the importance of electrostatic interactions in the observed stabilizations of RNA duplexes. First, as would be expected, higher numbers of cationic residues present in the depsipeptide/peptide led to greater increases in RNA duplex Tm (Table 1, entries #1–7). Second, the effect of His-containing depsipeptides was pH-dependent (Figs. 2d and 3c, d), as expected based on the His pKa of ~6.0. […] The ineffectiveness of this sequence is probably due to the l ...

[2] = test system: RNA duplex 1 (5′-rCrGrCrUrArArArUrCrG-3′ & 5′-rCrGrArUrUrUrArGrCrG-3′); assay: RNA thermal denaturation (Tm) by UV hyperchromicity at 260 nm with synthetic peptides/depsipeptides, RNA duplex 1; type: binding; conditions: 100 mM NaCl
Protocol: Each sample contained RNA duplex 1 (5′-rCrGrCrUrArArArUrCrG-3′ and 5′-rCrGrArUrUrUrArGrCrG-3′, 2.5 μM strand) and peptide/depsipeptide (100 μM) in buffered solution (10 mM phosphate, 100 mM NaCl, pH 7.0 or 10 mM acetate, 100 mM NaCl, pH 5.0). a Structures of depsipeptides used to systematically characterize cationic side chain effects on RNA duplex stability. Lactic acid residues are highlighted. Ac acetyl, Aba acetamidobenzoic acid, which was appended to the N-terminus to increase UV absorbance. b Structures of the Fmoc-didepsipeptide building blocks used for solid-phase synthesis of depsipeptide sequences. Fmoc fluorenylmethoxycarbonyl. c Comparative effects of oligo-didepsipeptide sequences 2–6 and analogous oligo-dipeptide and on the Tm of the RNA duplex (number of independent measurements: n = 3 for Arg and Lys sequences; n = 2 for His and Dab sequences; n = 4 for Orn sequences). The shaded areas correspond to the mean ± SD Tm measured for the RNA duplex alone (n = 16 independent measurements). Data are shown as a scatter plot with mean ± SD. d Comparative effects on RNA duplex Tm of depsipeptide sequences containing a single backbone ester (number of independent measurements: n = 3 for Arg; n = 2 for His, Orn, and Dab; n = 4 for Lys), relative to RNA duplex alone (n = 16 independent measurements). Data are shown as a scatter plot with mean ± SD. e To assess the impact of different cationic side chains on depsipeptide degradation rates, depsipeptides 7–11 (40 μM) were incubated at 37 °C in buffer (100 mM HEPES, 10 mM NaCl, pH 7.3). After 5 min, the reactions were quenched by the addition of 3% TFA, and samples were analyzed by HPLC.
(§1) Prior to Tm analyses, RNA samples were annealed in the appropriate buffer by heating to 75 °C and slowly cooling to room temperature. Depsipeptide/peptide was added to the annealed RNA and incubated at 4 °C for 20 min prior to carrying out the analysis. For analyses involving dry-down reaction mixtures, the Tm was determined by monitoring fluorescence increase upon melting of a fluorophore/quencher-labeled RNA duplex (5′-rCrGrArUrUrUrArGrCrG-/3IABkFQ/-3′ and 3′-rGrCrUrArArArUrCrGrC-FAM-5′) using a BioRad CFX Connect rtPCR instrument with a heating ramp of 1 °C/min and 20 μL final sample volumes. For analyses involving pure, synthetic compounds, the Tm of the RNA was determined by monitoring UV hyperchromicity at 260 nm using a Varian Cary Bio-100 spectrophotometer, with a heating ramp of 1 °C/min and 0.5- or 1-cm pathlength cells. The following RNA sequences were used: RNA duplex 1 = 5′-rCrGrCrUrArArArUrCrG-3′ and 5′-rCrGrArUrUrUrArGrCrG-3′; RNA duplex 2 = 5′-rArArArArUrUrUrArUrArUrUrArUrUrA-3′ and 5′-rUrArArUrArArUrArUrArArArUrUrUrU-3′; RNA duplex 3 = 5′-rArArCrGrUrArUrArCrGrUrU-3′ (palindromic); and H26a RNA = 5′-rArUrGrArGrUrArArCrCrGrUrArArGrGrUrGrArArArUrU-3′. RNA was present in each assay at a final concentration of 2.5 μM of the folded structure (2.5 μM each strand for duplex 1 and duplex 2, 5.0 μM palindromic strand for duplex 3, 2.5 μM strand for H26a RNA). Tm values were determined by nonlinear fitting of the melting curves using GraphPad Prism 8.2.1 for duplex 1 and H26a, or by finding the maximum of the first derivative of the curve using the Varian Cary Bio-100 software for duplex 2 and duplex 3.

[3] = test system: RNA duplex 2 (5′-rArArArArUrUrUrArUrArUrUrArUrUrA-3′ and 5′-rUrArArUrArArUrArUrArArArUrUrUrU-3′); assay: RNA thermal denaturation (Tm) by UV hyperchromicity, RNA duplex 2; type: binding
Protocol: as §1, with “3. Both methods of determining the Tm gave similar values for a given denaturation curve.” for “3.”

[4] = test system: RNA duplex 3 (5′-rArArCrGrUrArUrArCrGrUrU-3′, palindromic); assay: RNA thermal denaturation (Tm) by UV hyperchromicity, RNA duplex 3; type: binding
Protocol: as §1, with “3. Both methods of determining the Tm gave similar values for a given denaturation curve.” for “3.”

[5] = test system: H26a RNA (5′-rArUrGrArGrUrArArCrCrGrUrArArGrGrUrGrArArArUrU-3′); assay: RNA thermal denaturation (Tm) by UV hyperchromicity, H26a RNA hairpin; type: binding
Protocol: as §1, with “3. Both methods of determining the Tm gave similar values for a given denaturation curve.” for “3.”

[6] = test system: 10-mer RNA duplex (5′-6-FAM-rCrGrCrUrArArArUrCrG-3′ & 5′-rCrGrArUrUrUrArGrCrG-3IABkFQ-3′); assay: RNA duplex Tm by rtPCR fluorescence with dry-down reaction mixtures; type: binding; conditions: not subjected to the dry-down reaction (non-dried)
Excerpt: Accordingly, we determined the effect of cationic proto-peptides on RNA duplex stability by monitoring changes in the melting temperature (Tm) of a short 10mer RNA duplex in the presence or absence of individual proto-peptide samples (Fig. 2). The complementary RNA strands were 5′- or 3′-labeled with either a fluorophore or a quencher so that the degree of RNA hybridization could be monitored by fluorescence in rtPCR instrumentation (Supplementary Fig. 9). […] For the Tm measurements, the proto-peptide samples were diluted to a final concentration of 25 mM (based on the amount of cationic amino acid used at the start of the dry-down) and mixed with the RNA duplex (2.5 μM each strand).
Dry-down reaction products were dissolved in deionized water to give a 100 mM stock solution based on the amount of monomers used at the start of the dry-down. […]
Prior to Tm analyses, RNA samples were annealed in the appropriate buffer by heating to 75 °C and slowly cooling to room temperature. […] For analyses involving dry-down reaction mixtures, the Tm was determined by monitoring fluorescence increase upon melting of a fluorophore/quencher-labeled RNA duplex (5′-rCrGrArUrUrUrArGrCrG-/3IABkFQ/-3′ and 3′-rGrCrUrArArArUrCrGrC-FAM-5′) using a BioRad CFX Connect rtPCR instrument with a heating ramp of 1 °C/min and 20 μL final sample volumes.

## CC(=O)N[C@@H](Cc1ccc(O)cc1)C(=O)NCC(=O)N[C@@H](C)C(=O)N[C@@H](CCN)C(=O)N[C@@H](CCCCN)C(=O)N[C@@H](C)C(=O)N[C@@H](CCN)C(=O)N[C@@H](CCCCN)C(=O)N[C@@H](C)C(=O)N[C@@H](CCN)C(=O)N[C@@H](CCCCN)C(=O)N[C@@H](C)C(=O)N[C@@H](CCN)C(=O)N[C@@H](CCCCN)C(=O)N[C@@H](C)C(=O)N[C@@H](CCN)C(=O)N[C@@H](CCCCN)C(N)=O (Ac-YGA[Dab]KA[Dab]KA[Dab]KA[Dab]KA[Dab]K-NH2)
RNA duplex 1
  changes in CD spectra of the RNA duplex upon addition: physical association

## NCC(N)C(=O)O (stereo not drawn) [Dpr, 2,3-diaminopropionic acid]
[1]; when incorporated into oligomeric sequences
  pKa of side chain β-amine: ~ 6.3

## CC(=O)N[C@@H](Cc1ccc(O)cc1)C(=O)NCC(=O)N[C@@H](C)C(=O)N[C@@H](CCN)C(=O)N[C@@H](CCCCN)C(=O)N[C@@H](C)C(=O)N[C@@H](CCN)C(=O)N[C@@H](CCCCN)C(=O)N[C@@H](C)C(=O)N[C@@H](CCN)C(=O)N[C@@H](CCCCN)C(=O)N[C@@H](C)C(=O)N[C@@H](CCN)C(=O)N[C@@H](CCCCN)C(N)=O (Ac-YGA[Dab]KA[Dab]KA[Dab]KA[Dab]K-NH2)
RNA duplex 1; listed as Ac-Tyr-Gly-(Ala-Dab-Lys)4-NH2
  changes in CD spectra of the RNA duplex upon addition: physical association; also recorded: changes were observed in the CD spectra

## CC(=O)N[C@@H](Cc1ccc(O)cc1)C(=O)NCC(=O)N[C@@H](C)C(=O)N[C@@H](CCN)C(=O)N[C@@H](CCCCN)C(=O)N[C@@H](C)C(=O)N[C@@H](CCN)C(=O)N[C@@H](CCCCN)C(N)=O [Ac-Tyr-Gly-Ala-Dab-Lys-Ala-Dab-Lys-NH2] (Ac-YGA[Dab]KA[Dab]K-NH2)
RNA duplex 1
  changes in CD spectra of the RNA duplex upon addition: physical association

## CC(=O)N[C@@H](Cc1ccc(O)cc1)C(=O)NCC(=O)N[C@@H](C)C(=O)N[C@@H](CCN)C(=O)N[C@@H](CCCCN)C(=O)O[C@@H](C)C(=O)N[C@@H](CCN)C(=O)N[C@@H](CCCCN)C(=O)O[C@@H](C)C(=O)N[C@@H](CCN)C(=O)N[C@@H](CCCCN)C(=O)O[C@@H](C)C(=O)N[C@@H](CCN)C(=O)N[C@@H](CCCCN)C(N)=O [compound 14, Ac-Tyr-Gly-Ala-Dab-Lys-lac-Dab-Lys-lac-Dab-Lys-lac-Dab-Lys-NH2] (Ac-YGA[Dab]K[Lac][Dab]K[Lac][Dab]K[Lac][Dab]K-NH2)
[2]; observed Tm with peptide/depsipeptide 100 µM, pH 7.0, 10 mM phosphate, RNA alone 43.8 ± 0.4, mean ± SD of 2-4 independent experiments
  RNA duplex 1 Tm: 52.4 ± 1.5 °C
[2]; peptide/depsipeptide 100 μM, RNA 2.5 μM each strand, 10 mM phosphate, pH 7.0, vs RNA alone at matched pH, mean of 2–4 replicates
  RNA duplex 1 ΔTm: 8.6 °C
[3]; observed Tm with peptide/depsipeptide 100 µM, pH 7.0, RNA alone 33.7 ± 0.7, mean ± SD of 2-4 independent experiments
  RNA duplex 2 Tm: 42.8 ± 0.6 °C
[3]; peptide/depsipeptide 100 μM, RNA 2.5 μM each strand, pH 7.0, 10 mM phosphate, 100 mM NaCl, mean of 2–4 replicates
  RNA duplex 2 ΔTm: 9.1 °C
[4]; observed Tm with peptide/depsipeptide 100 µM, pH 7.0, RNA alone 48.6 ± 0.7, mean ± SD of 2-4 independent experiments
  RNA duplex 3 Tm: 58.6 ± 0.7 °C
[4]; peptide/depsipeptide 100 μM, 5.0 μM palindromic strand, pH 7.0, 10 mM phosphate, 100 mM NaCl, mean of 2–4 replicates
  RNA duplex 3 ΔTm: 10.0 °C
[5]; observed Tm with peptide/depsipeptide 100 µM, pH 7.0, RNA alone 53.4 ± 0.5, mean ± SD of 2-4 independent experiments
  H26a RNA Tm: 63.8 ± 0.6 °C
[5]; peptide/depsipeptide 100 μM, RNA 2.5 μM strand, pH 7.0, 10 mM phosphate, 100 mM NaCl, mean of 2–4 replicates
  H26a RNA ΔTm: 10.4 °C
RNA duplex 1
  changes in CD spectra of the RNA duplex upon addition: changes were observed in the CD spectra
RNA duplex 1; change in CD signal at 266 nm, one-site binding model, RNA duplex 1 5 μM each strand, depsipeptide 0–10 μM, MES-TEA buffer pH 6, 5 °C, independent triplicates averaged, read-out: apparent Kd
  Kd: ~3000 nM

## N[C@@H](Cc1c[nH]cn1)C(=O)O [His, histidine]
[1]; His side chain, no reference given
  pKa: ~ 6.0

## NCCCCC(O)C(=O)O (stereo not drawn) [hah, 2-hydroxy-6-aminohexanoic acid]
[6]
  effect on RNA duplex Tm, non-dried controls: no effect on the Tm

## NCCC(O)C(=O)O (stereo not drawn) [hab, 2-hydroxy-4-aminobutyric acid]
[6]
  effect on RNA duplex Tm, non-dried controls: no effect on the Tm

## CC(=O)N[C@@H](Cc1ccc(O)cc1)C(=O)NCC(=O)N[C@@H](C)C(=O)N[C@@H](CCN)C(=O)N[C@@H](CCCCN)C(=O)N[C@@H](C)C(=O)N[C@@H](CCN)C(=O)N[C@@H](CCCCN)C(=O)N[C@@H](C)C(=O)N[C@@H](CCN)C(=O)N[C@@H](CCCCN)C(N)=O (Ac-YGA[Dab]KA[Dab]KA[Dab]K-NH2)
RNA duplex 1
  changes in CD spectra of the RNA duplex upon addition: physical association
